Patent US6225063A, “RNA channels in biological membranes” (University Technology Corporation, priority 1999, dated 2001)

Test system: 11th -round pool RNA
Experiment: RNA-liposome binding in the presence of a potential competitor (SEPHACRYL S-1000 gel filtration)
Conditions: 5 mM competitor; 11th-round pool RNA incubated with liposomes

## NCCO [ethanolamine]
  RNA binding to phosphatidylcholine liposomes in the presence of competitor: did not interfere with binding
